Measurements from PubChem BioAssay (NCI).
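Grown in 96-well plates, cells were treated for 48 hours with each compound at five concentrations. Insufficient inhibition: endpoint recorded as highest concentration tested. TGI marks complete inhibition of growth.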

What was measured:
Assay in all cases: growth of human tumour cells (NCI), 48 h
786-0 renal = test system: 786-0 renal
CAKI-1 renal = test system: CAKI-1 renal
SF-268 CNS = test system: SF-268 CNS
EKVX NSCLC = test system: EKVX NSCLC
CCRF-CEM leukemia = test system: CCRF-CEM leukemia
MDA-N = test system: MDA-N
MDA-MB-435 = test system: MDA-MB-435
MOLT-4 leukemia = test system: MOLT-4 leukemia
HS 578T breast = test system: HS 578T breast
NCI-H23 lung = test system: NCI-H23 lung
SK-MEL-2 melanoma = test system: SK-MEL-2 melanoma
SR leukemia = test system: SR leukemia
A549 NSCLC = test system: A549 NSCLC
IGROV1 ovarian = test system: IGROV1 ovarian
OVCAR-8 ovarian = test system: OVCAR-8 ovarian
SN12C renal = test system: SN12C renal
COLO 205 colon = test system: COLO 205 colon
SK-OV-3 ovarian = test system: SK-OV-3 ovarian
RPMI-8226 leukemia = test system: RPMI-8226 leukemia
K-562 leukemia = test system: K-562 leukemia

SMILES	TGI (786-0 renal)	TGI (CAKI-1 renal)	TGI (SF-268 CNS)	TGI (EKVX NSCLC)	TGI (CCRF-CEM leukemia)	TGI (MDA-N)	TGI (MDA-MB-435)	TGI (MOLT-4 leukemia)	TGI (HS 578T breast)	TGI (NCI-H23 lung)	TGI (SK-MEL-2 melanoma)	TGI (SR leukemia)	TGI (A549 NSCLC)	TGI (IGROV1 ovarian)	TGI (OVCAR-8 ovarian)	TGI (SN12C renal)	TGI (COLO 205 colon)	TGI (SK-OV-3 ovarian)	TGI (RPMI-8226 leukemia)	TGI (K-562 leukemia)
COC(=O)c1cn(CCCCO)nn1	> 100 µM	> 100 µM	> 100 µM	> 100 µM	> 100 µM	> 100 µM	> 100 µM	> 100 µM	> 100 µM	> 100 µM	> 100 µM	> 100 µM	> 100 µM	> 100 µM	> 100 µM	> 100 µM	> 100 µM			
Cc1cccc(Nc2nc(NNC(=O)Cc3ccccc3)nc(NNC(=O)c3ccncc3)n2)c1	> 10 µM	> 10 µM	> 10 µM	> 10 µM	> 10 µM	> 10 µM	> 10 µM	> 10 µM	> 10 µM	> 10 µM		> 10 µM	> 10 µM	> 10 µM	> 10 µM	> 10 µM	> 10 µM	> 10 µM	> 10 µM	
O=c1c2ccccc2n2n1Cc1ccccc1C2	> 100 µM	> 100 µM	> 100 µM	> 100 µM	> 100 µM	> 100 µM	> 100 µM	> 100 µM	> 100 µM	> 100 µM		> 100 µM	> 100 µM	> 100 µM	> 100 µM	> 100 µM	> 100 µM	> 100 µM	> 100 µM	> 100 µM
O=C1c2cscc2C(=O)c2c(OCc3ccccc3)ccc(OCc3ccccc3)c21	> 100 µM	> 100 µM	> 100 µM	> 100 µM	> 100 µM	> 100 µM	> 100 µM	> 100 µM	> 100 µM	> 100 µM		> 100 µM	> 100 µM	> 100 µM	> 100 µM	> 100 µM	> 100 µM	> 100 µM	> 100 µM	> 100 µM
O=C(Nn1c(-c2ccccc2)nc2ccccc2c1=O)c1ccc(O)cc1	> 100 µM		> 100 µM	> 100 µM	> 100 µM	> 100 µM	> 100 µM	> 100 µM	> 100 µM	> 100 µM		> 100 µM	> 100 µM	> 100 µM	> 100 µM	> 100 µM	> 100 µM	> 100 µM	> 100 µM	> 100 µM
Cc1ccc(S(=O)(=O)c2ccsc2NC(=O)c2ccccc2)cc1	> 79.6 µM	97.4 µM	> 82.5 µM	> 100 µM		> 100 µM	> 100 µM	> 100 µM	76.2 µM	> 31.6 µM	> 100 µM	> 100 µM	> 100 µM	> 100 µM	98.5 µM	> 100 µM	> 100 µM	> 100 µM	> 100 µM	> 21.8 µM
C=CCOCn1ccc(NC(=O)c2ccccc2)nc1=O	> 100 µM	> 100 µM	> 100 µM	> 100 µM	> 100 µM	> 100 µM	> 100 µM	> 100 µM	> 100 µM	> 100 µM		> 100 µM	> 100 µM	> 100 µM	> 100 µM	> 100 µM	> 100 µM	> 100 µM	> 100 µM	> 100 µM
C=CCN1C[C@@H](C)N([C@@H](c2ccccc2)c2ccc(C(=O)N(CC)CC)cc2)C[C@@H]1C	> 100 µM	> 100 µM	> 100 µM	> 100 µM		> 100 µM	> 100 µM	> 100 µM	> 100 µM	> 100 µM	> 100 µM	> 100 µM	> 100 µM	> 100 µM	> 100 µM	> 100 µM	> 100 µM	> 100 µM	> 100 µM	
COCN1C(=O)[C@@H]2CCCN2C(=O)c2cc(Cl)ccc21	> 100 µM	> 100 µM	> 100 µM	> 100 µM		> 100 µM	> 100 µM	> 100 µM	> 100 µM	> 100 µM	> 100 µM	> 100 µM	> 100 µM	> 100 µM	> 100 µM	> 100 µM	> 100 µM	> 100 µM	> 100 µM	> 100 µM
O=C(Oc1ccc(OC(Oc2ccccc2)c2ccccc2)cc1)c1ccccc1 (centres undefined)	> 31.6 µM		23 µM	> 31.6 µM	> 31.6 µM	> 31.6 µM	> 31.6 µM	> 31.6 µM	> 31.6 µM	24.4 µM	36.6 µM	> 31.6 µM	> 31.6 µM	23.4 µM	> 31.6 µM	> 31.6 µM	> 31.6 µM	> 31.6 µM	24.1 µM	> 31.6 µM
CCOC(=O)NC(C(C(=O)OCC)C(=O)OCC)(C(F)(F)F)C(F)(F)F	> 100 µM	> 100 µM	> 100 µM	> 100 µM	> 100 µM	> 100 µM	> 100 µM	> 100 µM	> 100 µM	> 100 µM	> 100 µM	> 100 µM	> 100 µM	> 100 µM	> 100 µM	> 100 µM	> 100 µM		> 100 µM	> 100 µM
CN(C)c1ccc(/C=C2\N=C(c3ccccc3)N(/N=C3\C(=O)Nc4ccccc43)C2=O)cc1	> 100 µM	> 100 µM	> 100 µM	> 100 µM	> 100 µM	> 100 µM	45.4 µM	> 100 µM	> 100 µM	> 100 µM	> 100 µM	> 100 µM	> 100 µM	> 100 µM	> 100 µM	> 100 µM	81 µM	> 100 µM		> 100 µM
O=C1C=C(NCCc2cc(Cl)c(O)c(Cl)c2)C(=O)c2[nH]cnc21	> 100 µM			> 100 µM		33.8 µM	30.3 µM	67.5 µM	> 100 µM	36.8 µM	57.6 µM	> 100 µM	> 100 µM	38.8 µM	> 100 µM	> 100 µM	52.7 µM		> 100 µM	55.4 µM
CC(C)N(C(=O)c1ccc(NCc2cc(O)ccc2O)cc1)C(C)C	26.6 µM	27.2 µM	36.2 µM	28.6 µM	> 100 µM	42 µM	40.9 µM	> 100 µM	78.7 µM	42.2 µM	57.9 µM	> 100 µM	> 100 µM	64.8 µM	35.4 µM	49 µM	> 100 µM	> 100 µM		> 100 µM
O=C1CCCCCCCCCCC1CN(Cc1ccccc1)Cc1ccccc1 (centres undefined)	> 100 µM		> 100 µM	> 100 µM	50.2 µM	> 100 µM	> 100 µM	62.5 µM	> 100 µM	> 100 µM		> 100 µM	> 100 µM	> 100 µM	> 100 µM	> 100 µM	> 100 µM	> 100 µM	> 100 µM	> 100 µM
COc1ccc2[nH]cc(CN3CCC(CO)(c4ccccc4)CC3)c2c1	28.6 µM		34.8 µM	24 µM	75.1 µM	38.3 µM	47.6 µM	56.9 µM	70.9 µM	> 100 µM	55.3 µM	52.8 µM	57.3 µM	> 100 µM	> 100 µM	> 100 µM	40.3 µM	> 100 µM	66 µM	43.1 µM
CCOC(=O)c1nc2cc(C(F)(F)F)ccc2nc1Oc1ccc(C(=O)OC)cc1	> 100 µM	> 100 µM	> 100 µM	> 100 µM	> 100 µM	> 100 µM	> 100 µM	> 100 µM	> 100 µM		> 100 µM	> 100 µM	> 100 µM	> 100 µM	> 100 µM	> 100 µM	> 100 µM		> 100 µM	> 100 µM
COc1ccc(C(=O)C(CC2C(=O)CC(C)(C)C(C(=O)C(=O)Nc3c(C)cccc3C)C2=O)c2ccc(OC)cc2)cc1 (centres undefined)	> 100 µM	> 100 µM	> 100 µM	> 100 µM	> 100 µM	> 100 µM	> 100 µM	> 100 µM	> 100 µM	> 100 µM	> 100 µM	91.9 µM	> 100 µM	> 100 µM	> 100 µM	> 100 µM	> 100 µM	> 100 µM		
COC(=O)C(CCSc1ccccc1)C(=O)OC	> 100 µM	> 100 µM		> 100 µM	> 100 µM	> 100 µM	> 100 µM	> 100 µM	> 100 µM	> 100 µM	> 100 µM	> 100 µM	> 100 µM	> 100 µM	> 100 µM	> 100 µM	> 100 µM	> 100 µM	> 100 µM	
Nc1ccc(-c2nc3ccccc3s2)cc1F	50.2 µM	54.4 µM	> 100 µM	11.8 µM	> 100 µM	> 100 µM	> 100 µM	31.9 µM	> 100 µM	> 100 µM	43.4 µM	53.9 µM	> 100 µM	> 100 µM	> 100 µM	> 100 µM	48.3 µM	> 100 µM		> 100 µM
COc1cc2c(cc1O)-c1c(OC)c(O)cc3c1C(C2)N(C)CC3 (centres undefined)	> 100 µM	> 100 µM	> 100 µM	> 100 µM	> 100 µM	> 100 µM	> 100 µM	> 100 µM	> 100 µM	> 100 µM	> 100 µM	> 100 µM	> 100 µM	> 100 µM	> 100 µM	> 100 µM	> 100 µM	> 100 µM	> 100 µM	
CN1CC(S(=O)(=O)c2ccccc2)CC(S(=O)(=O)c2ccccc2)C1c1ccccc1 (centres undefined)	25.5 µM	26 µM	37.7 µM	32.6 µM		28.8 µM	28.3 µM	> 100 µM	84.1 µM		20 µM	78.3 µM	> 100 µM	> 100 µM	> 100 µM	25.7 µM	28 µM	> 100 µM		95.2 µM
COc1cc2c(cc1OC)CN1CCc3ccccc3CC1C2 (centres undefined)	> 100 µM	> 100 µM		> 100 µM	> 100 µM	> 100 µM	> 100 µM	> 100 µM	> 100 µM	> 100 µM	> 100 µM	23.5 µM	> 100 µM	> 100 µM	> 100 µM	> 100 µM	> 100 µM	> 100 µM		> 100 µM
N#Cc1c(-c2ccccc2)c(C#N)c(=S)n(C2OCC(O)C(O)C2O)c1N (centres undefined)	> 100 µM	> 100 µM	> 100 µM		> 100 µM	> 100 µM	> 100 µM	> 100 µM	> 100 µM	> 100 µM	> 100 µM	> 100 µM	> 100 µM	> 100 µM	> 100 µM	> 100 µM		> 100 µM	> 100 µM	> 100 µM
Cc1ccc(N=Nc2c(C)nn(C(=O)CC(=O)Nc3ccc(Cl)cc3)c2C)cc1C	> 100 µM	> 100 µM	> 100 µM	> 100 µM	71 µM	> 100 µM	> 100 µM	66 µM	30.7 µM	> 100 µM	> 100 µM	39.7 µM	> 100 µM	> 100 µM	> 100 µM	> 100 µM	> 100 µM	51.2 µM	> 100 µM	
